Where a name gives a salt, the structure may show the parent alone. Numbered stars: 1 amine (or outer) side, 2 acyl side, 3 side chain; on linkers, the order of the positions; unused ones are H or OH. Square brackets hold non-standard residues; d marks the D form. Peptide text beside a SMILES is read from it. * marks the point of attachment. Dip = N[C@H](C(=O)O)C(c1ccccc1)c1ccccc1; CO = O=C([*:1])[*:2]; Tfa = O=C(C(F)(F)F)*; Ms = CS(=O)(=O)*

A short description of this assay: Inhibition of ET-1 stimulated arachidonic acid release in rabbit renal vascular smooth muscle cells.
Consider `CC[C@H](C)[C@H](NC(=O)[C@H](CC(=O)O)NC(=O)[C@H](CC(C)C)NC(=O)[C@@H](NS(C)(=O)=O)C(c1ccccc1)c1ccccc1)C(=O)N[C@H](C(=O)N[C@@H](Cc1c[nH]c2ccccc12)C(=O)O)[C@@H](C)CC` [(S)-N-((1S,2S)-1-{(1S,2S)-1-[(S)-1-Carboxy-2-(1H-indol-3-yl)-ethylcarbamoyl]-2-methyl-butylcarbamoyl}-2-methyl-butyl)-3-[(S)-2-((S)-2-methanesulfonylamino-3,3-diphenyl-propionylamino)-4-methyl-pentanoylamino]-succinamic acid] (Ms-[Dip]LDIIW-OH), for which the half-maximal inhibitory concentration (IC50) amounted to 2100 nM.

Compound `CC[C@H](C)[C@H](NC(=O)[C@H](CC(=O)O)NC(=O)[C@H](CC(C)C)NC(=O)[C@@H](NC(=O)C(F)(F)F)C(c1ccccc1)c1ccccc1)C(=O)N[C@H](C(=O)N[C@@H](Cc1c[nH]c2ccccc12)C(=O)O)[C@@H](C)CC` [(S)-N-((1S,2S)-1-{(1S,2S)-1-[(S)-1-Carboxy-2-(1H-indol-3-yl)-ethylcarbamoyl]-2-methyl-butylcarbamoyl}-2-methyl-butyl)-3-{(S)-2-[(S)-3,3-diphenyl-2-(2,2,2-trifluoro-acetylamino)-propionylamino]-4-methyl-pentanoylamino}-succinamic acid] (Tfa-[Dip]LDIIW-OH) gave an IC50 of 1700 nM.

For `CC[C@H](C)[C@H](NC(=O)[C@H](CC(=O)O)NC(=O)[C@H](CC(C)C)NC(=O)[C@@H](NC(=O)NC)C(c1ccccc1)c1ccccc1)C(=O)N[C@H](C(=O)N[C@@H](Cc1c[nH]c2ccccc12)C(=O)O)[C@@H](C)CC` [(S)-N-((1S,2S)-1-{(1S,2S)-1-[(S)-1-Carboxy-2-(1H-indol-3-yl)-ethylcarbamoyl]-2-methyl-butylcarbamoyl}-2-methyl-butyl)-3-{(S)-4-methyl-2-[(S)-2-(3-methyl-ureido)-3,3-diphenyl-propionylamino]-pentanoylamino}-succinamic acid] ({NHMe-CO}-[Dip]LDIIW-OH), the half-inhibitory concentration (IC50) was 280 nM.

(Values after BindingDB's records for doi:10.1021/jm00015a003 (Warner-Lambert, 1995).)
